In test [1] the target is T1, Ras farnesyl transferase (Homo sapiens, UniProt P49354+P49356).
T1 construct: made in house
The test is described as follows: Ras farnesyl transferase inhibiting activity (filter-binding, tritium-farnesylpyrophosphate, Ras-CVLS substrate). Type of test: biochemical. Conditions: recombinant Ras farnesyl transferase, 30 minutes at 37° C., read-out: Ftase IC50.

In test [2] the test system is intracellular Ras farnesyl transferase, Rat2 cell line. The test is described as follows: Intracellular Ras farnesyl transferase inhibiting activity in transformed Rat2 cells (35S-methionine labelling, Y13-259 immunoprecipitation, SDS-PAGE). Type of test: cell-based. Conditions: Rattus norvegicus; transformed Rat2 fibroblast cell line; concentration inhibiting 50% of farnesyl binding of Ras protein; read-out: Ftase CIC50. Put shortly: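 Rat2 fibroblasts transformed with H-Ras, or with H-Ras carrying the K-Ras polybasic lysine C-terminus, were treated with compound (1% DMSO). After 4 h they were labelled for 20 h with 150 μCi/ml 35S-methionine. Lysates were immunoprecipitated with Y13-259, run on 13.5% SDS-PAGE and autoradiographed; CIC50 is the concentration halving farnesylated versus unfarnesylated Ras band intensity.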

Test [3] has as its target T2, Geranylgeranyl transferase (Bos taurus, UniProt P29702+Q5EAD5).
T2 construct: Geranylgeranyl transferase was purified from bovine brain; from tissue; host or cells: bovine brain
The test is described as follows: Geranylgeranyl transferase inhibiting activity (geranylgeranyl pyrophosphate, Ras-CVIL substrate). Type of test: biochemical. The following applies: geranylgeranyl transferase purified from bovine brain, read-out: GGtase IC50. Put shortly:
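Bovine-brain-purified enzyme run as in the farnesyl transferase assay, with geranylgeranyl pyrophosphate and Ras-CVIL substrate protein under similar reaction conditions.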

For the compound `CC1(c2cccc3ccccc23)NC(=O)N(CCCc2cncn2Cc2ccc(C#N)cc2)C1=O` (stereo not drawn) [Compound 45, 4-{5-[3-(4-methyl-4-naphthalen-1-yl-2,5-dioxo-imidazolidin-1-yl)-propyl]-imidazol-1-ylmethyl}benzonitrile], the IC50 in test [1] is 5.5 µM; in test [2] it was below 20 µM; in test [3], above 10 µM.
On the same counts, the results for `CN1C(=O)N(CCCc2cncn2Cc2ccc(C#N)cc2)C(=O)C1(C)c1cccc2ccccc12` (stereo not drawn) [Compound 46, 4-{5-[3-(3-methyl-4-methyl-4-naphthalen-1-yl-2,5-dioxo-imidazolidin-1-yl)-propyl]-imidazol-1-ylmethyl}-benzonitrile] are 0.044 µM, below 20 µM and above 10 µM.
As for `CCN1C(=O)N(CCCc2cncn2Cc2ccc(C#N)cc2)C(=O)C1(C)c1cccc2ccccc12` (stereo not drawn) [Compound 47, 4-{5-[3-(3-ethyl-4-methyl-4-naphthalen-1-yl-2,5-dioxo-imidazolidin-1-yl)-propyl]-imidazol-1-ylmethyl}benzonitrile], the IC50 is 0.018 µM in test [1], below 20 µM in test [2] and above 10 µM in test [3].
For the compound `CCCN1C(=O)N(CCCc2cncn2Cc2ccc(C#N)cc2)C(=O)C1(C)c1cccc2ccccc12` (stereo not drawn) [Compound 48, 4-{5-[3-(3-propyl-4-methyl-4-naphthalen-1-yl-2,5-dioxo-imidazolidin-1-yl)-propyl]-imidazol-1-ylmethyl}benzonitrile], the IC50 was 0.04 µM in test [1], below 20 µM in test [2] and above 10 µM in test [3].
On the same counts, the results for `CCCCN1C(=O)N(CCCc2cncn2Cc2ccc(C#N)cc2)C(=O)C1(C)c1cccc2ccccc12` (stereo not drawn) [Compound 49, 4-{5-[3-(3-butyl-4-methyl-4-naphthalen-1-yl-2,5-dioxo-imidazolidin-1-yl)-propyl]-imidazol-1-ylmethyl}benzonitrile] are 0.055 µM, below 20 µM and above 10 µM.
Regarding `COCCOCN1C(=O)N(CCCc2cncn2Cc2ccc(C#N)cc2)C(=O)C1(C)c1cccc2ccccc12` (stereo not drawn) [Compound 50, 4-(5-{3-[3-(2-methoxy-ethoxymethyl)-4-methyl-4-naphthalen-1-yl-2,5-dioxo-imidazolidin-1-yl]-propyl}-imidazol-1-ylmethyl)-benzonitrile], the IC50 in test [1] is 0.055 µM; in test [2] it was below 20 µM; in test [3] it was above 10 µM.
On the same counts, the results for `CCOC(=O)CN1C(=O)N(CCCc2cncn2Cc2ccc(C#N)cc2)C(=O)C1(C)c1cccc2ccccc12` (stereo not drawn) [Compound 51, (3-{3-[3-(4-cyanobenzyl)-3H-imidazol-4-yl]-propyl}-5-methyl-5-naphthalen-1-yl-2,4-dioxo-imidazolidin-1-yl)-acetic acid ethyl ester] are 0.019 µM, below 20 µM and above 10 µM.
For the compound `CC1(c2cccc3ccccc23)C(=O)N(CCCc2cncn2Cc2ccc(C#N)cc2)C(=O)N1CC(=O)O` (stereo not drawn) [Compound 52, (3-{3-[3-(4-cyanobenzyl)-3H-imidazol-4-yl]-propyl}-5-methyl-5-naphthalen-1-yl-2,4-dioxo-imidazolidin-1-yl)-acetic acid], the figures for the IC50 in test [1], in test [2] and in test [3] were 0.019 µM, below 20 µM and above 10 µM, respectively.
On the same counts, the results for `CC1(c2cccc3ccccc23)C(=O)N(CCCc2cncn2Cc2ccc(C#N)cc2)C(=O)N1Cc1ccccc1` (stereo not drawn) [Compound 53, 4-(5-{3-[3-benzyl-4-methyl-4-naphthalen-1-yl-2,5-dioxo-imidazolidin-1-yl]-propyl}-imidazol-1-ylmethyl)-benzonitrile] are 0.065 µM, below 20 µM and above 10 µM.
The like results for `CC1(c2cccc3ccccc23)C(=O)N(CCCc2cncn2Cc2ccc(C#N)cc2)C(=O)N1Cc1cccc(C#N)c1` (stereo not drawn) [Compound 54, 4-(5-{3-[3-(3-cyano-benzyl)-4-methyl-4-naphthalen-1-yl-2,5-dioxo-imidazolidin-1-yl]-propyl}-imidazol-1-ylmethyl)-benzonitrile] were, in that order, 0.05 µM, below 20 µM and above 10 µM.
With `CC1(c2cccc3ccccc23)C(=O)N(CCCc2cncn2Cc2ccc(C#N)cc2)C(=O)N1Cc1ccco1` (stereo not drawn) [Compound 55, 4-{5-[3-(3-furan-2-ylmethyl-4-methyl-4-naphthalen-1-yl-2,5-dioxo-imidazolidin-1-yl)-propyl]-imidazol-1-ylmethyl}-benzonitrile], the figures for the IC50 in test [1], in test [2] and in test [3] were 0.045 µM, below 20 µM and above 10 µM, respectively.
On the same counts, the results for `CC1(c2cccc3ccccc23)C(=O)N(CCCc2cncn2Cc2ccc(C#N)cc2)C(=O)N1C(=O)c1ccco1` (stereo not drawn) [Compound 56, 4-(5-{3-[3-(furan-2-carbonyl)-4-methyl-4-naphthalen-1-yl-2,5-dioxo-imidazolidin-1-yl]-propyl}-imidazol-1-ylmethyl)-benzonitrile] are 0.08 µM, below 20 µM and above 10 µM.
The like results for `COC(=O)C(CCSC)NC(=O)CN1C(=O)N(CCCc2cncn2Cc2ccc(C#N)cc2)C(=O)C1(C)c1cccc2ccccc12` (stereo not drawn) [Compound 57, 2-[2-(3-{3-[3-(4-cyanobenzyl)-3H-imidazol-4-yl]-propyl}-5-methyl-5-naphthalen-1-yl-2,4-dioxo-imidazolidin-1-yl)acetylamino]-4-methylsulfanyl-butyric acid methyl ester] were, in that order, 0.016 µM, 400 µM and above 10 µM.
On the same counts, the results for `CSCCC(NC(=O)CN1C(=O)N(CCCc2cncn2Cc2ccc(C#N)cc2)C(=O)C1(C)c1cccc2ccccc12)C(=O)O` (stereo not drawn) [Compound 58, 2-[2-(3-{3-[3-(4-cyanobenzyl)-3H-imidazol-4-yl]-propyl}-5-methyl-5-naphthalen-1-yl-2,4-dioxo-imidazolidin-1-yl)-acetylamino]-4-methylsulfanyl-butyric acid] are 0.014 µM, below 20 µM and above 10 µM.
As for `CC1(c2cccc3ccccc23)NC(=O)N(Cc2cncn2Cc2ccc(C#N)cc2)C1=O` (stereo not drawn) [Compound 59, 4-[5-(4-methyl-4-naphthalen-1-yl-2,5-dioxo-imidazolidin-1-ylmethyl)-imidazol-1-ylmethyl]-benzonitrile], the IC50 was 0.44 µM in test [1], below 20 µM in test [2] and above 10 µM in test [3].
On the same counts, the results for `CN1C(=O)N(Cc2cncn2Cc2ccc(C#N)cc2)C(=O)C1(C)c1cccc2ccccc12` (stereo not drawn) [Compound 60, 4-[5-(3-methyl-4-methyl-4-naphthalen-1-yl-2,5-dioxo-imidazolidin-1-ylmethyl)-imidazol-1-ylmethyl]-benzonitrile] are 0.16 µM, below 20 µM and above 10 µM.
On the same counts, the results for `CCN1C(=O)N(Cc2cncn2Cc2ccc(C#N)cc2)C(=O)C1(C)c1cccc2ccccc12` (stereo not drawn) [Compound 61, 4-[5-(3-ethyl-4-methyl-4-naphthalen-1-yl-2,5-dioxo-imidazolidin-1-ylmethyl)-imidazol-1-ylmethyl]-benzonitrile] are 0.16 µM, below 20 µM and above 10 µM.
On the same counts, the results for `CCOC(=O)CN1C(=O)N(Cc2cncn2Cc2ccc(C#N)cc2)C(=O)C1(C)c1cccc2ccccc12` (stereo not drawn) [Compound 62, {3-[3-(4-cyano-benzyl)-3H-imidazol-4-ylmethyl]-5-methyl-5-naphthalen-1-yl-2,4-dioxo-imidazolidin-1-yl)-acetic acid ethyl ester] are 0.05 µM, below 20 µM and above 10 µM.
For `CC1(c2cccc3ccccc23)C(=O)N(Cc2cncn2Cc2ccc(C#N)cc2)C(=O)N1Cc1cccc(C#N)c1` (stereo not drawn) [Compound 63], the IC50 in test [1] is 0.05 µM; in test [2], below 20 µM; in test [3], above 10 µM.
On the same counts, the results for `COc1ccc(C(=O)N2C(=O)N(CCCn3ccnc3)C(=O)C2(C)c2cccc3ccccc23)cc1` (stereo not drawn) [Compound 64, 3-(3-imidazol-1-yl-propyl)-1-(4-methoxy-benzoyl)-5-methyl-5-naphthalen-1-yl-imidazolidin-2,4-dione] are 0.7 µM, below 20 µM and above 10 µM.
The like results for `CC1(c2cccc3ccccc23)C(=O)N(CCCn2ccnc2)C(=O)N1C(=O)N1CCOCC1` (stereo not drawn) [Compound 65, 3-(3-imidazol-1-yl-propyl)-5methyl-1-(morpholine-4-carbonyl)-5-naphthalen-1-yl-imidazolidin-2,4-dione] were, in that order, 4.5 µM, below 20 µM and above 10 µM.
The like results for `CC1(c2cccc3ccccc23)C(=O)N(CCCn2ccnc2)C(=O)N1C(=O)Nc1cccc(C#N)c1` (stereo not drawn) [Compound 66, 3-(3-imidazol-1-yl-propyl)-5-methyl-5-naphthalen-1-yl-2,4-dioxo-imidazolidin-1-carboxylic acid (3-cyano-phenyl)-amide] were, in that order, 0.2 µM, below 20 µM and above 10 µM.
For `CC1(c2cccc3ccccc23)C(=O)N(CCCn2ccnc2)C(=O)N1CC(=O)NC1(C#N)CCOCC1` (stereo not drawn) [Compound 67, N-(4-cyano-tetrahydropyran-4-yl)-2-[3-(3-imidazol-1yl-propyl)-5-methyl-5-naphthalen-1-yl-2,4-dioxo-imidazolidin-1-yl]-acetamide], the IC50 was 3.6 µM in test [1], below 20 µM in test [2] and above 10 µM in test [3].

The values above are taken from patent publication US6384061B1, “Hydantoin compounds and methods related thereto” (LG Chemical Ltd., priority 2000, dated 2002).
